The test system of test [1] is ENR+CD organoids (ISC to Paneth cell differentiation). The test is described as follows: Primary screen: basal (non-stimulated) lysozyme secretion LYZ.NS, 2.5-D 384-well ENR+CD organoid differentiation. The settings on record: primary screen; for Z.LYZ.NS: standard z score. The format is cell-based, mouse. From the text: (§1) High-throughput screening.
Test [2] deals with ENR+CD organoids. The experiment in a line: Primary screen: ATP (CellTiter-Glo 3D, CTG) cell number/viability, 2.5-D 384-well ENR+CD organoids.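 As to all read-outs here: compounds given at plating and again on day 3 over a 6-day differentiation from ENR+CV stem-cell-enriched precursors, ATP measured on day 6, plate median as control.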 The settings on record: primary screen; for Z.CTG: standard z score. For orientation: Cellular ATP, detected with luciferase, serves as a proxy for viable cell number.
The test system of test [3] is ENR+CD organoids (ISC to Paneth cell differentiation). The test is described as follows: Primary screen: CCh-stimulated lysozyme secretion LYZ.S, 2.5-D 384-well ENR+CD organoid differentiation. The format is cell-based, mouse. Conditions: primary screen.
Text: as §1

The mark [4] stands for this setting: dose 0.08 uM, FC relative to plate median.
Setting [5] is: dose 0.40 uM, FC relative to plate median.
Where [6] appears, read: dose 2.00 uM, FC relative to plate median.
Setting [7] is: dose 10.00 uM, FC relative to plate median.

For the molecule `N#CSc1cc(SC#N)c(N)nc1N` [PR-619], the Dose.FC.LYZ.NS in test [1] (setting [4]) was 0.100 log2 fold change; in test [1] (setting [5]), 0.051 log2 fold change; in test [1] (setting [6]), 0.057 log2 fold change; in test [1] (setting [7]), −0.194 log2 fold change. In addition, the Z.LYZ.NS in test [1] (dose 0.08 uM) was 0.872; in test [1] (dose 0.40 uM) it was 0.448; in test [1] (dose 2.00 uM), 0.495; in test [1] (dose 10.00 uM) it was −1.687. The Dose.FC.CTG in test [2] (setting [4]) is listed as 0.054 log2 fold change; in test [2] (setting [5]) it was 0.111 log2 fold change; in test [2] (setting [6]) it was 0.022 log2 fold change; in test [2] (setting [7]), −0.320 log2 fold change. Also, the Z.CTG in test [2] (dose 0.08 uM) was 0.130; in test [2] (dose 0.40 uM), 0.266; in test [2] (dose 2.00 uM) it was 0.053; in test [2] (dose 10.00 uM) it was −0.764. The Dose.FC.LYZ.S in test [3] (setting [4]) is reported as 0.122 log2 fold change; in test [3] (setting [5]) it was 0.047 log2 fold change; in test [3] (setting [6]), 0.081 log2 fold change; in test [3] (setting [7]), −0.193 log2 fold change.

As to `Cc1ccc(C(=O)N(CCCN)[C@@H](c2nc3cc(Cl)ccc3c(=O)n2Cc2ccccc2)C(C)C)cc1` [Ispinesib (SB-715992)], the “Dose.FC.LYZ.NS (log2 fold change)” value in test [1] (dose 0.08 uM) is recorded as −0.222; in test [1] (dose 0.40 uM), −0.191; in test [1] (dose 2.00 uM), −0.196; in test [1] (dose 10.00 uM), −0.201. Besides, the “Z.LYZ.NS (standard z score)” value is −1.931 in test [1] (dose 0.08 uM), −1.663 in test [1] (dose 0.40 uM), −1.709 in test [1] (dose 2.00 uM) and −1.752 in test [1] (dose 10.00 uM). Further, the “Dose.FC.CTG (log2 fold change)” value in test [2] (dose 0.08 uM) was −0.323; in test [2] (dose 0.40 uM), −0.518; in test [2] (dose 2.00 uM) it was −0.511; in test [2] (dose 10.00 uM) it was −0.713. For the same molecule, the “Z.CTG (standard z score)” value in test [2] (dose 0.08 uM) was −0.772; in test [2] (dose 0.40 uM) it was −1.238; in test [2] (dose 2.00 uM), −1.220; in test [2] (dose 10.00 uM), −1.704. For the same molecule, the “Dose.FC.LYZ.S (log2 fold change)” value in test [3] (dose 0.08 uM) is −0.271; in test [3] (dose 0.40 uM) it was −0.296; in test [3] (dose 2.00 uM) it was −0.287; in test [3] (dose 10.00 uM) it was −0.286.

For `Cn1c(=O)cc(N2CCC[C@@H](N)C2)n(Cc2cc(F)ccc2C#N)c1=O` [Trelagliptin], the Dose.FC.LYZ.NS is given as 0.007 log2 fold change in test [1] (dose 0.08 uM), −0.019 log2 fold change in test [1] (dose 0.40 uM), −0.033 log2 fold change in test [1] (dose 2.00 uM) and −0.050 log2 fold change in test [1] (dose 10.00 uM). Moreover, the “Z.LYZ.NS (standard z score)” value in test [1] (dose 0.08 uM) was 0.059; in test [1] (dose 0.40 uM), −0.166; in test [1] (dose 2.00 uM) it was −0.292; in test [1] (dose 10.00 uM) it was −0.433. The Dose.FC.CTG in test [2] (dose 0.08 uM) is listed as 0.202 log2 fold change; in test [2] (dose 0.40 uM), −0.076 log2 fold change; in test [2] (dose 2.00 uM), 0.050 log2 fold change; in test [2] (dose 10.00 uM), 0.135 log2 fold change. The Dose.FC.LYZ.S in test [3] (dose 0.08 uM) is 0.020 log2 fold change; in test [3] (dose 0.40 uM), 0.058 log2 fold change; in test [3] (dose 2.00 uM) it was −0.022 log2 fold change; in test [3] (dose 10.00 uM) it was −0.109 log2 fold change.

In the case of `CCCN[C@H]1CCc2nc(N)sc2C1` [Pramipexole], the Dose.FC.LYZ.NS in test [1] (setting [4]) was found to be 0.057 log2 fold change; in test [1] (setting [5]), 0.027 log2 fold change; in test [1] (setting [6]), 0.027 log2 fold change; in test [1] (setting [7]), 0.005 log2 fold change. The Z.LYZ.NS in test [1] (dose 0.08 uM) stood at 0.495; in test [1] (dose 0.40 uM), 0.234; in test [1] (dose 2.00 uM), 0.239; in test [1] (dose 10.00 uM) it was 0.043. Besides, the Dose.FC.CTG is 0.109 log2 fold change in test [2] (setting [4]), 0.182 log2 fold change in test [2] (setting [5]), 0.026 log2 fold change in test [2] (setting [6]) and 0.231 log2 fold change in test [2] (setting [7]). Moreover, the Dose.FC.LYZ.S is 0.050 log2 fold change in test [3] (setting [4]), 0.123 log2 fold change in test [3] (setting [5]), 0.041 log2 fold change in test [3] (setting [6]) and 0.071 log2 fold change in test [3] (setting [7]).

In the case of SN-38, the Dose.FC.LYZ.NS is −0.275 log2 fold change in test [1] (setting [4]), −0.288 log2 fold change in test [1] (setting [5]), −0.305 log2 fold change in test [1] (setting [6]) and −0.299 log2 fold change in test [1] (setting [7]). Further, the Z.LYZ.NS in test [1] (dose 0.08 uM) is −2.391; in test [1] (dose 0.40 uM), −2.505; in test [1] (dose 2.00 uM), −2.655; in test [1] (dose 10.00 uM), −2.606. In addition, the Dose.FC.CTG in test [2] (setting [4]) is given as −0.720 log2 fold change; in test [2] (setting [5]), −1.091 log2 fold change; in test [2] (setting [6]), −1.226 log2 fold change; in test [2] (setting [7]) it was −1.166 log2 fold change. The Z.CTG in test [2] (dose 0.08 uM) is reported as −1.720; in test [2] (dose 0.40 uM), −2.606; in test [2] (dose 2.00 uM), −2.929; in test [2] (dose 10.00 uM), −2.785. The Dose.FC.LYZ.S was −0.419 log2 fold change in test [3] (setting [4]), −0.402 log2 fold change in test [3] (setting [5]), −0.391 log2 fold change in test [3] (setting [6]) and −0.404 log2 fold change in test [3] (setting [7]).

Take `COc1cc2ncnc(Nc3ccc(Cl)cc3F)c2cc1OC` [ZM 306416]: the Dose.FC.LYZ.NS in test [1] (dose 0.08 uM) was 0.105 log2 fold change; in test [1] (dose 0.40 uM), −0.223 log2 fold change; in test [1] (dose 2.00 uM) it was −0.291 log2 fold change; in test [1] (dose 10.00 uM), −0.275 log2 fold change. Moreover, the “Z.LYZ.NS (standard z score)” value in test [1] (dose 0.08 uM) is recorded as 0.912; in test [1] (dose 0.40 uM) it was −1.942; in test [1] (dose 2.00 uM), −2.531; in test [1] (dose 10.00 uM), −2.395. Also, the Dose.FC.CTG in test [2] (dose 0.08 uM) was −0.080 log2 fold change; in test [2] (dose 0.40 uM), −0.483 log2 fold change; in test [2] (dose 2.00 uM), −1.312 log2 fold change; in test [2] (dose 10.00 uM), −1.490 log2 fold change. For the same molecule, the “Z.CTG (standard z score)” value in test [2] (dose 0.08 uM) was −0.190; in test [2] (dose 0.40 uM), −1.155; in test [2] (dose 2.00 uM) it was −3.135; in test [2] (dose 10.00 uM), −3.559. Moreover, the Dose.FC.LYZ.S in test [3] (dose 0.08 uM) was 0.006 log2 fold change; in test [3] (dose 0.40 uM), −0.288 log2 fold change; in test [3] (dose 2.00 uM) it was −0.403 log2 fold change; in test [3] (dose 10.00 uM) it was −0.431 log2 fold change.

The record behind these values is patent publication US20220323406A1, “METHODS AND COMPOSITIONS FOR DIFFERENTIATING STEM CELLS” (Massachusetts Institute of Technology, priority 2019, published 2022).
